Patent EP4729530A1, “NOVEL PEPTIDE AND USE THEREOF” (Gemvax & Kael Co., Ltd., priority 2023, dated 2024)

Assays:
[1] = system: 4R Tau^P301L-BiFC mouse; assay: Rota-rod experiment in 4R tauopathy mouse model; type: in vivo; details: 3 times/week, 21 weeks
Description: (§1) In vivo experiments were performed on the 4R tauopathy mouse groups shown in FIG. 4 according to the schedule shown in FIG. 5 and the outline in Table 3 below.
Rota-rod experiments were conducted on mice with 4R tauopathy treated with GV2002 for five months, from 7.5 to 12.5 months of age, to evaluate the efficacy of GV2002 in alleviating impairment in motor ability.
On day 1, acclimation training was conducted, and on day 2, behavioral testing was conducted. Prior to acclimation training and behavioral testing, mice were allowed to acclimate to the testing environment for one hour. During acclimation training, mice walked on a […] at a speed ranging from 5 to 25 rpm for 300 seconds, and any mouse that lost its balance and fell to the floor was allowed to walk again. […] The measured values were analyzed using a two-way ANOVA with Dunnett's multiple comparisons test.

[2] = system: 4R Tau^P301L-BiFC mouse; assay: Novel object recognition experiment in 4R tauopathy mouse model; type: in vivo; details: GV2002 2 mg/kg subcutaneous, 3 times/week, 21 weeks
Description: as §1
Novel object recognition experiments were conducted on a 4R tauopathy mouse model administered GV2002 for five months, from 7.5 to 12.5 months of age, to evaluate the efficacy of GV2002 in alleviating impairment in cognitive ability.
Mice that underwent the experiment from days 1 to 6 according to the experimental method in Example 4-2 were subjected to a novel object recognition experiment on days 7 and 8. […] On day 8, one of the two objects was replaced with a novel object, and mice were placed in the enclosure and observed for 10 minutes, during which the time spent exploring the novel object was measured. Prior to the experiments on days 7 and 8, mice were allowed one hour to acclimate to the testing environment. The illumination level was maintained at a constant level throughout the experiment. The recorded data were analyzed using two-way ANOVA with Sidak's multiple comparisons test.

[3] = system: 4R Tau^P301L-BiFC mouse; assay: Y-maze experiment in 4R tauopathy mouse model; type: in vivo; details: GV2002 2 mg/kg subcutaneous, 3 times/week, 21 weeks; 8 minutes Y-maze
Description: as §1
Y-maze experiments were conducted on a 4R tauopathy mouse model administered GV2002 for five months, from 7.5 to 12.5 months of age, to evaluate the efficacy of GV2002 in alleviating impairment in spatial memory.
Prior to the experiment, mice were allowed one hour to acclimate to the testing environment. The mice's behavior was recorded for 8 minutes.

[4] = system: tau oligomer formation; assay: Brain Tau-BiFC imaging for tau oligomer formation; type: in vivo, mouse; details: GV2002 2 mg/kg subcutaneous, 3 times/week, 21 weeks
Description: as §1
Brains from a 4R tauopathy mouse model administered GV2002 for five months, from 7.5 to 12.5 months of age, were removed and analyzed using lipid staining.
Brain tissue sampling was performed in the same manner as in Example 4-5.
To remove autofluorescence from brain tissues through lipid staining, a 0.05% Sudan Black B solution in 70% ethanol was stirred overnight and then filtered through a 0.22-µm filter. 30-µm-thick frozen brain sections from each region were immersed in deionized water and washed three times for 5 minutes each. The brain tissue was then immersed in the prepared 0.05% Sudan Black B solution for 10 minutes to perform staining. The brain tissue stained with Sudan Black B was immersed in 0.1% PBS-T solution and washed at 30-second intervals to adjust the staining intensity and then washed three times with deionized water for 5 minutes each. Nuclear staining was performed by immersing the brain tissue in a 0.2-µg/mL Hoechst solution in deionized water for 20 minutes. The tissue was then washed three times with deionized water for 5 minutes each. Tau-BiFC imaging was performed using a slide scanner.
To obtain fluorescence images of the stained brain tissue, brain tissue slides were scanned using a Zeiss Axio Scan. Tau-BiFC fluorescence levels in each brain region obtained through fluorescence imaging, i.e., the somatosensory cortex, hippocampus (CA1), motor cortex, and substantia nigra, were calculated using ImageJ software. The calculated values were analyzed using one-way ANOVA with Dunnett's multiple comparisons test.

[5] = Stability in human plasma (LC-MS, residual peptide); type: in vitro ADME; details: 37 °C, read-out: percentage of residual peptide relative to the peptide amount before reaction
Description: The peptide was added to human plasma and diluted to a concentration of 5 µM, followed by incubation at 37 °C for 10, 60, and 240 minutes with stirring. The reaction mixture was collected and pretreated by plasma protein precipitation using methanol containing 0.1% formic acid. The resulting supernatants were collected and analyzed by LC-MS under the conditions shown in Table 1 below to determine the percentage of residual peptide relative to the initial peptide amount.

[6] = Pharmacokinetic profile in rats (intravenous and subcutaneous administration); type: in vivo; details: Sprague Dawley rats
Description: To determine the pharmacokinetic profile of GV2002 prepared in Example 1, plasma was collected from rats administered with GV2002. The collected plasma was pretreated by protein precipitation using nine times the volume of methanol containing 0.1% formic acid, followed by centrifugation at 16,100 g for 10 minutes.
(§2) GV2002 was administered intravenously (IV) to three Sprague Dawley rats per group. Blood samples were collected at 0.033, 0.083, 0.17, 0.25, 0.5, 1, and 2 hours after administration. The collected blood samples were centrifuged to separate plasma, pretreated, and analyzed using LC-MS. Pharmacokinetic parameters were calculated using the non-compartmental analysis model of the Phoenix WinNonlin (Pharsight, ver. 6.4, USA) program.
as §2, with “subcutaneously (SC)” for “intravenously (IV)”, “of” for “of the”, “(Pharsight” for “(Pharsight,”, “USA).” for “USA) program.”

[7] = system: 4R Tau^P301L-BiFC mouse; assay: Open field experiment in 4R tauopathy mouse model; type: in vivo; details: GV2002 2 mg/kg subcutaneous, 3 times/week, 21 weeks; 10 minutes open field
Description: as §1
Open field experiments were conducted on mice with 4R tauopathy administered GV2002 for five months, from 7.5 to 12.5 months of age, to evaluate the efficacy of GV2002 in alleviating impairment in motor ability.
To prevent changes in mouse behavioral responses, handling was performed for five days (days 1 to 5) prior to the experiment. Each handling session lasted two minutes. On day 6, mice were placed in a 40 cm × 40 cm enclosure and subjected to an open field experiment for 10 minutes. Prior to the experiment, mice were allowed one hour to acclimate to the testing environment. During the open field experiment, movement trajectories, distance traveled, and movement speed of the mice were recorded. The illumination level was maintained at a constant level throughout the experiment. The recorded values were analyzed using one-way ANOVA with Dunnett's multiple comparisons test.

remaining at 1 h, 5 µM ([5]; 60 minutes): 57.2%
remaining at 4 h, 5 µM ([5]; 240 minutes): 46.5%
AUC(0-t) ([6]; rat, plasma, intravenous (IV), non-compartmental analysis): 438 ng·h/mL
Substance: Ac-EARPALLTSRLRFIPK-NH2 [GV2002]
motor ability (Rota-rod) compared to the reference compound LMTM-administered group ([1]; GV2002 2 mg/kg subcutaneous vs LMTM 15 mg/kg oral): relatively enhanced motor ability
motor ability (Rota-rod, time until fall) compared to the vehicle-administered group ([1]; GV2002 2 mg/kg subcutaneous, 7.5 to 12.5 months of age): significantly improved motor ability
time spent exploring the novel object compared to the time spent exploring the learned object [2]: significant increase
rate of spontaneous alternation behavior compared to the vehicle-administered group [3]: significant increase
Tau-BiFC fluorescence intensity, reduction compared to the vehicle-administered group ([4]; hippocampus region): 63%
Tau-BiFC fluorescence intensity, reduction compared to the vehicle-administered group ([4]; motor cortex region): 56%
Tau-BiFC fluorescence intensity, reduction compared to the vehicle-administered group ([4]; somatosensory cortex region): 58%
Tau-BiFC fluorescence intensity, reduction compared to the vehicle-administered group ([4]; substantia nigra region): 56%
in vivo persistence after subcutaneous administration ([6]; subcutaneous (SC)): remains in a stable state in vivo without degradation and persists for a long period of time
movement speed in the open space compared to the vehicle-administered group [7]: significantly higher
total distance traveled in the open space compared to the vehicle-administered group [7]: significantly higher
